# US5705491A, “Adenosine deaminase inhibitor” (Nippon Zoki Pharmaceutical Co., Ltd., priority 1992, dated 1998)
# pKi: −log10 of the molar value.
# Molecular target: T1, adenosine deaminase of type VII (mucous membrane of intestinal tract of calf) (Bos taurus, UniProt P56658)
# T1 construct: from tissue; host or cells: mucous membrane of intestinal tract of calf
# T1 sequence (P56658 1-363): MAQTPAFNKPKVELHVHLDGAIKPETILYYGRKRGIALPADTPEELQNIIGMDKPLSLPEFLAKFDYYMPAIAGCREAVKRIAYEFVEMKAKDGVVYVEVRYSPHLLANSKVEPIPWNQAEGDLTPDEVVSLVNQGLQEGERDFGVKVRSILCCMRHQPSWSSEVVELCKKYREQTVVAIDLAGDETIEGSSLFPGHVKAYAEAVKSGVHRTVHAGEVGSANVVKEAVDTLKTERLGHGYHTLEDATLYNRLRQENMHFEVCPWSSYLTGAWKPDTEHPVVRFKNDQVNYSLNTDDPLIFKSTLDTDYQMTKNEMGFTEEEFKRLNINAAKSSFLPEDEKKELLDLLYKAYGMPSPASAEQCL
# Assay: Adenosine deaminase inhibiting action
# Format: biochemical
# Conditions: 25° C., 0.05M phosphate buffer pH 7.5, adenosine substrate, 5 minutes, Lineweaver-Burk plots
# Method: 1. Adenosine Deaminase Inhibiting Action
# The enzymatic reaction was conducted at 25° C. in a 0.05M phosphate buffer (pH=7.5). Thus, a reaction solution comprising 800 μl of substrate solution (adenosine), 100 μl of a solution to be tested and 100 μl of enzyme solution (adenosine deaminase of type VII; mucous membrane of intestinal tract of calf) was reacted for 5 minutes and the reaction was stopped by adding 100 μl of acetic acid. Then the amount of inosine produced was determined by means of an HPLC to measure the inhibiting activity. The test was conducted for various substrate concentrations and Ki values were measured by Lineweaver-Burk plots.
row,Compound,pKi
1,"CNc1ncnc2c1ncn2[C@@H]1O[C@H](CO)[C@@H](O)[C@H]1OC [Compound 18, N^6,2'-O-Dimethiladenosine]",5.91
2,"CCNc1ncnc2c1ncn2[C@@H]1O[C@H](CO)[C@@H](O)[C@H]1OC [Compound 19, N^6 -Ethyl-2'-O-methyladenosine]",4.11
3,"CCCCO[C@@H]1[C@H](O)[C@@H](CO)O[C@H]1n1cnc2c(NC)ncnc21 [Compound 22, N^6 -Methyl-2'-O-n-butyladenosine]",7.25
4,"CCCCCCO[C@@H]1[C@H](O)[C@@H](CO)O[C@H]1n1cnc2c(NC)ncnc21 [Compound 23, N^6 -Methyl-2'-O-n-hexyladenosine]",6.05
5,"CCCCCCCCO[C@@H]1[C@H](O)[C@@H](CO)O[C@H]1n1cnc2c(NC)ncnc21 [Compound 24, N^6 -Methyl-2'-O-n-octyladenosine]",6.96
6,"CNc1ncnc2c1ncn2[C@@H]1O[C@H](COC)[C@@H](O)[C@H]1O [Compound 25, N^6, 5'-O-Dimethyladenosine]",3.44
7,"CCCCCCc1nc(NC)c2ncn([C@@H]3O[C@H](CO)[C@@H](O)[C@H]3OC)c2n1 [Compound 30, N^6,2'-O-Dimethyl-2-hexyladenosine]",7.05
8,"CCCCCCCCCCC#Cc1nc(NC)c2ncn([C@@H]3O[C@H](CO)[C@@H](O)[C@H]3OC)c2n1 [Compound 33, N^6,2'-O-Dimethyl-2-(1-dodecyn-1-yl)-adenosine]",4.82
9,"CO[C@H]1[C@@H](O)[C@H](n2cnc3c(N)nc(Br)nc32)O[C@@H]1CO [Compound 44, 2-Bromo-3'-O-methyladeonsine]",4.66
10,"CNc1nc(Br)nc2c1ncn2[C@@H]1O[C@H](CO)[C@@H](O)[C@H]1OC [Compound 45, 2-Bromo-N^6,2'-O-dimethyladenosine]",6.92
11,"CNc1nc(Br)nc2c1ncn2[C@@H]1O[C@H](CO)[C@@H](OC)[C@H]1O [Compound 46, 2-Bromo-N^6,3'-O-dimethyladeonsine]",5.43
12,"CO[C@@H]1[C@H](O)[C@@H](CO)O[C@H]1n1cnc2c(N)nc(I)nc21 [Compound 47, 2-Iodo-2'-O-methyladenosine]",6.64
13,"CO[C@H]1[C@@H](O)[C@H](n2cnc3c(N)nc(I)nc32)O[C@@H]1CO [Compound 48, 2-Iodo-3'-O-methyladeonsine]",5.36
14,"CCCCCNc1nc(N)c2ncn([C@@H]3O[C@H](CO)[C@@H](O)[C@H]3OC)c2n1 [Compound 52, 2-Pentylamino-2'-O-methyladenosine]",6.22
15,"CNc1nc(Nc2ccccc2)nc2c1ncn2[C@@H]1O[C@H](CO)[C@@H](O)[C@H]1OC [Compound 55, 2-Phenylamino-N^6,2'-O-dimethyladenosine]",7.89
16,"CNc1nc(Nc2ccccc2)nc2c1ncn2[C@@H]1O[C@H](CO)[C@@H](OC)[C@H]1O [Compound 56, 2-Phenylamino-N^6,3'-O-dimethyladenosine]",6.96
17,"CO[C@@H]1[C@H](O)[C@@H](CO)O[C@H]1n1cnc2c(N)nc(C#CCO)nc21 [Compound 57, 2-(3-Hydroxy-1-propyn-1-yl)-2'-O-methyladenosine]",4.52
18,"CO[C@@H]1[C@H](OC)[C@@H](CO)O[C@H]1n1cnc2c(N)ncnc21 [Compound 59, 2',3'-O-Dimethyladenosine]",5.12
19,"CNc1ncnc2c1ncn2[C@@H]1O[C@H](CO)[C@@H](OC)[C@H]1OC [Compound 60, N^6,2',3'-O-Trimethyladenosine]",6.12

# Other lines, results leading:
row,pKi,Compound
1,2.99,"CO[C@@H]1[C@H](O)[C@@H](CO)O[C@H]1n1cnc2c(NC3CCCCC3)ncnc21 [Compound 73, N^6 -Cyclohexyl-2'-O-methyladenosine]"
2,3.31,"CO[C@H]1[C@@H](O)[C@H](n2cnc3c(N)ncnc32)O[C@@H]1CO [Compound 2, 3'-O-Methyladenosine]"
3,3.44,"CNc1nc(C)nc2c1ncn2[C@@H]1O[C@H](COC)[C@@H](O)[C@H]1O [Compound 34, 2,N^6,5'-O-Trimethyladenosine]"
4,3.57,"CCCCNc1ncnc2c1ncn2[C@@H]1O[C@H](CO)[C@@H](O)[C@H]1OC [Compound 20, N^6-n-Butyl-2'-O-methyladenosine]"
5,3.75,"CO[C@H]1[C@@H](O)[C@H](n2cnc3c(N)nc(C)nc32)O[C@@H]1CO [Compound 6, 2,3'-O-Dimethyl adenosine]"
6,4.55,"CO[C@@H]1[C@H](O)[C@@H](CO)O[C@H]1n1cnc2c(N)nc(N)nc21 [Compound 50, 2-Amino-2'-O-methyladenosine]"
7,4.61,"CO[C@@H]1[C@H](O)[C@@H](CO)O[C@H]1n1cnc2c(N)nc(C)nc21 [Compound 5, 2,2'-O-Dimethyl adenosine]"
8,4.72,"CO[C@@H]1[C@H](O)[C@@H](CO)O[C@H]1n1cnc2c(N)nc(O)nc21 [Compound 39, 2-Hydroxy-2'-O-methyladenosine]"
9,4.88,"CO[C@@H]1[C@H](O)[C@@H](CO)O[C@H]1n1cnc2c(N)ncnc21 [Compound 1, 2'-O-Methyladenosine]"
10,5.10,"CO[C@H]1[C@@H](O)[C@H](n2cnc3c(N)nc(-c4ccccc4)nc32)O[C@@H]1CO [Compound 38, 2-Phenyl-3'-O-methyladenosine]"
11,5.30,"CO[C@H]1[C@@H](O)[C@H](n2cnc3c(N)nc(N)nc32)O[C@@H]1CO [Compound 51, 2-Amino-3'-O-methyladenosine]"
12,5.46,"CCCCO[C@@H]1[C@H](O)[C@@H](CO)O[C@H]1n1cnc2c(N)ncnc21 [Compound 4, 2'-O-n-Butyladenosine]"
13,5.49,"CO[C@@H]1[C@H](O)[C@@H](CO)O[C@H]1n1cnc2c(N)nc(Br)nc21 [Compound 43, 2-Bromo-2'-O-methyladenosine]"
14,5.66,"CO[C@H]1[C@@H](O)[C@H](n2cnc3c(N)nc(Nc4ccccc4)nc32)O[C@@H]1CO [Compound 54, 2-Phenylamino-3'-O-methyladenosine]"
15,5.89,"CO[C@@H]1[C@H](OC)[C@@H](CO)O[C@H]1n1cnc2c(N)nc(C)nc21 [Compound 63, 2,2',3'-O-Trimethyladenosine]"
16,6.06,"CNc1nc(C)nc2c1ncn2[C@@H]1O[C@H](CO)[C@@H](OC)[C@H]1OC [Compound 64, 2,N^6,2',3'-O-Tetramethyladenosine]"
17,6.18,"CO[C@@H]1[C@H](O)[C@@H](CO)O[C@H]1n1cnc2c(N)nc(-c3ccccc3)nc21 [Compound 37, 2-Phenyl-2'-O-methyladenosine]"
18,6.48,"CCO[C@@H]1[C@H](O)[C@@H](CO)O[C@H]1n1cnc2c(NC)ncnc21 [Compound 21, N^6 -Methyl-2'-O-ethyladenosine]"
19,6.55,"CCCCCCCCCCc1nc(NC)c2ncn([C@@H]3O[C@H](CO)[C@@H](O)[C@H]3OC)c2n1 [Compound 31, N^6,2'-O-Dimethyl-2-decyladenosine]"
20,6.77,"CO[C@@H]1[C@H](O)[C@@H](CO)O[C@H]1n1cnc2c(N)nc(Nc3ccccc3)nc21 [Compound 53, 2-Phenylamino-2'-O-methyladenosine]"
21,6.82,"CCO[C@@H]1[C@H](OCC)[C@@H](CO)O[C@H]1n1cnc2c(NC)ncnc21 [Compound 61, N^6 -Methyl-2',3'-O-diethyladenosine]"
22,6.92,"CCCCC#Cc1nc(NC)c2ncn([C@@H]3O[C@H](CO)[C@@H](O)[C@H]3OC)c2n1 [Compound 32, N^6,2'-O-Dimethyl-2-(1-hexyn-1-yl)-adenosine]"

# System: ischemic edema of hind paw of mice
# Assay: Suppressive action against ischemic edema
# Format: in vivo, ICR-strain male mice
# Conditions: 10 mg/kg intravenous before ischemia; treated paw
# Method: 4. Suppressive Action against Ischemic Edema
# The right hind paw of ICR-strain male mice (11 weeks of age) were fastened with a rubber band to stop the blood stream for 20 minutes, and then the rubber band was removed to recover the blood stream. The tested drug was administered intravenously before the treatment. Each of the right and left hind paws were weighed and the suppressive action was measured according to the weight difference between the treated and untreated paws.
row,Compound,"Paw Weight, Treated [mg]"
1,Oc1ncnc2[nH]ncc12 [Allopurinol],283.2 ± 6.3

# Same assay, conditions: 10 mg/kg intravenous before ischemia; untreated paw
row,Compound,"Paw Weight, Untreated [mg]"
1,Oc1ncnc2[nH]ncc12 [Allopurinol],222.9 ± 6.9

# Same assay, conditions: 10 mg/kg intravenous; from weight difference between treated and untreated paws
row,Compound,Inhibition (of ischemic edema) [%]
1,Oc1ncnc2[nH]ncc12 [Allopurinol],36.4
